Source: patent publication US8865623B2, “Herbicidally active cyclic diones and derivatives thereof, processes for their preparation, compositions, and method of controlling weeds” (Syngenta Limited, priority 2009, dated 2014)

Experiments:
Assay type in all cases: in vivo
[1] = system: Alopecurus myosuroides (ALOMY); experiment: Post-emergence herbicidal activity, glasshouse pot test; details: rate 250 g/ha, evaluated after 13 days; for pest or weed control at 250 g/ha: Alopecurus myosuroides, 312 h, read-out: Post-emergence activity ALOMY (100=total damage to plant; 0=no damage to plant)
Procedure, shortened: (§1)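 Potted plants sprayed one day after sowing (pre-emergence) or after 8 days (post-emergence) with formulation in acetone/water (50:50) containing 0.5% Tween 20. Glasshouse at 24/16 °C, 14 h light, 65% humidity; damage scored after 13 days (0 none, 100 total).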

Lolium perenne (LOLPE) [2] = experiment: as above; details: rate 250 g/ha, evaluated after 13 days; for pest or weed control at 250 g/ha: Lolium perenne, 312 h, read-out: Post-emergence activity LOLPE (100=total damage to plant; 0=no damage to plant)
Procedure, shortened: as §1

Avena fatua (AVEFA) [3] = experiment: as above; details: rate 250 g/ha, evaluated after 13 days; for pest or weed control at 250 g/ha: Avena fatua, 312 h, read-out: Post-emergence activity AVEFA (100=total damage to plant; 0=no damage to plant)
Procedure, shortened: as §1

[4] = system: Echinochloa crus-galli (ECHCG); experiment: as above; details: rate 250 g/ha, evaluated after 13 days; for pest or weed control at 250 g/ha: Echinochloa crus-galli, 312 h, read-out: Post-emergence activity ECHCG (100=total damage to plant; 0=no damage to plant)
Procedure, shortened: as §1

[5] = system: Alopecurus myosuroides (ALOMY); experiment: Pre-emergence herbicidal activity, glasshouse pot test; details: evaluated after 13 days; for pest or weed control at 250 g/ha: Alopecurus myosuroides, 312 h, Rate 250 g/ha, read-out: Pre-emergence activity ALOMY (100=total damage to plant; 0=no damage to plant)
Procedure, shortened: as §1

Lolium perenne (LOLPE) [6] = experiment: as above; details: evaluated after 13 days; for pest or weed control at 250 g/ha: Lolium perenne, 312 h, Rate 250 g/ha, read-out: Pre-emergence activity LOLPE (100=total damage to plant; 0=no damage to plant)
Procedure, shortened: as §1

Avena fatua (AVEFA) [7] = experiment: as above; details: evaluated after 13 days; for pest or weed control at 250 g/ha: Avena fatua, 312 h, Rate 250 g/ha, read-out: Pre-emergence activity AVEFA (100=total damage to plant; 0=no damage to plant)
Procedure, shortened: as §1

[8] = system: Echinochloa crus-galli (ECHCG); experiment: as above; details: evaluated after 13 days; for pest or weed control at 250 g/ha: Echinochloa crus-galli, 312 h, Rate 250 g/ha, read-out: Pre-emergence activity ECHCG (100=total damage to plant; 0=no damage to plant)
Procedure, shortened: as §1

Row | SMILES | pest or weed control at 250 g/ha ([1]; glasshouse) | pest or weed control at 250 g/ha (Lolium perenne (LOLPE) [2]; glasshouse) | pest or weed control at 250 g/ha (Avena fatua (AVEFA) [3]; glasshouse) | pest or weed control at 250 g/ha ([4]; glasshouse) | pest or weed control at 250 g/ha ([5]; pre-emergence spray) | pest or weed control at 250 g/ha (Lolium perenne (LOLPE) [6]; pre-emergence spray) | pest or weed control at 250 g/ha (Avena fatua (AVEFA) [7]; pre-emergence spray) | pest or weed control at 250 g/ha ([8]; pre-emergence spray) | also measured
1 | CCc1ccc(Oc2ncc(C(F)(F)F)cc2F)cc1C1=C(O)CC(C)(C)CC1=O [Example A-285] | 100% | 100% | 100% | 100% | 90% | 100% | 70% | 100% | 
2 | CCc1ccc(Oc2nc3ccc(C)cc3s2)cc1C1=C(O)C(C)(C)OC(C)(C)C1=O [Example A-168] | 90% | 90% | 20% | 90% | 60% | 80% | 10% | 70% | 
3 | CCc1ccc(Oc2ccc(Cl)cc2Cl)cc1C1=C(O)[C@@H]2CC[C@](C)(C1=O)C2(C)C (single isomer, unassigned) [Example A-94] | 10% | 20% | 0% | 40% | 40% | 100% | 20% | 90% | 
4 | CCc1ccc(Oc2nc3cc(Cl)ccc3s2)cc1C1=C(O)[C@@H]2CC[C@](C)(C1=O)C2(C)C [Example A-322] | 90% | 90% | 80% | 100% | 60% | 100% | 40% | 100% | 
5 | CCc1ccc(Oc2cc(Cl)c3ccccc3n2)cc1C1=C(O)C(C)(C)OC(C)(C)C1=O [Example A-251] | 80% | 0% | 30% | 100% | 40% | 80% | 20% | 100% | 
6 | CCc1ccc(Oc2ccc(F)cc2F)cc1C1=C(O)CCCC1=O [Example A-69] | 10% | 20% | 0% | 60% | 20% | 30% | 0% | 80% | 
7 | CCc1ccc(Oc2ccc3ccccc3c2)cc1C1=C(O)C(C)(C)OC(C)(C)C1=O [Example A-56] | 100% | 100% | 0% | 100% | 80% | 100% | 30% | 80% | 
8 | CC1(C)OC(C)(C)C(O)=C(c2cc(Oc3ccc(Br)cc3F)ccc2C2CC2)C1=O [Example A-350] |  |  |  |  |  |  |  |  | pest or weed control at 250 g/ha [1]: 90%; pest or weed control at 250 g/ha (Lolium perenne (LOLPE) [2]): 90%; pest or weed control at 250 g/ha (Avena fatua (AVEFA) [3]): 90%; pest or weed control at 250 g/ha [4]: 100%; pest or weed control at 250 g/ha ([5]; pre-emergence): 90%; pest or weed control at 250 g/ha (Lolium perenne (LOLPE) [6]; pre-emergence): 100%; pest or weed control at 250 g/ha (Avena fatua (AVEFA) [7]; pre-emergence): 50%; pest or weed control at 250 g/ha ([8]; pre-emergence): 100%
9 | CCc1ccc(Oc2nc3cccc(C#N)c3s2)cc1C1=C(O)C(C)(C)OC(C)(C)C1=O [Example A-220] | 60% | 80% | 30% | 100% | 10% | 10% | 0% | 30% | 
10 | CCc1ccc(Oc2cc(F)c(C#N)c(F)c2)cc1C1=C(O)C(C)(C)OC(C)(C)C1=O [Example A-207] | 80% | 90% | 80% | 100% | 30% | 60% | 10% | 70% | 
11 | CCc1ccc(Oc2ccc(Cl)c(F)c2)cc1C1=C(O)[C@H]2CC[C@H](C2)C1=O [Example A-249] | 90% | 70% | 100% | 100% | 60% | 90% | 60% | 90% | 
12 | CCc1ccc(Oc2ccc(F)cc2Cl)cc1C1=C(O)C(C)(C)OC(C)(C)C1=O [Example A-33] | 40% | 50% | 50% | 100% | 20% | 80% | 10% | 90% | 
13 | CCc1ccc(Oc2ncc(C(F)(F)F)cc2Cl)cc1C1=C(O)[C@H]2CC[C@H](C2)C1=O [Example A-335] | 100% | 100% | 90% | 100% | 100% | 100% | 90% | 100% | 
14 | CCc1ccc(Oc2nc3ccccc3s2)cc1C1=C(O)CC2(CCOCC2)CC1=O [Example A-303] | 100% | 100% | 100% | 100% | 80% | 90% | 80% | 100% | 
15 | CCc1ccc(Oc2ccc(Cl)cc2C#N)cc1C1=C(O)C(C)(C)OC(C)(C)C1=O [Example A-224] | 50% | 70% | 50% | 70% | 20% | 30% | 10% | 20% | 
16 | CCc1ccc(Oc2ccc(C#N)c(C(F)(F)F)c2)cc1C1=C(O)C(C)(C)OC(C)(C)C1=O [Example A-76] | 80% | 70% | 70% | 100% | 70% | 60% | 80% | 100% | 
17 | CCc1ccc(Oc2ccc(C#N)cc2F)cc1C1=C(OC(C)=O)C(C)(C)OC(C)(C)C1=O [Example P-1] |  |  |  |  |  |  |  |  | ALOMY damage to plant (100=total damage to plant; 0=no damage to plant) [1]: 80; LOLPE damage to plant (100=total damage to plant; 0=no damage to plant) (Lolium perenne (LOLPE) [2]): 90; AVEFA damage to plant (100=total damage to plant; 0=no damage to plant) (Avena fatua (AVEFA) [3]): 60; ECHCG damage to plant (100=total damage to plant; 0=no damage to plant) [4]: 100; ALOMY damage to plant (100=total damage to plant; 0=no damage to plant) ([5]; pre-emergence, rate 250 g/ha): 80; LOLPE damage to plant (100=total damage to plant; 0=no damage to plant) (Lolium perenne (LOLPE) [6]; pre-emergence, rate 250 g/ha): 100; AVEFA damage to plant (100=total damage to plant; 0=no damage to plant) (Avena fatua (AVEFA) [7]; pre-emergence, rate 250 g/ha): 20; ECHCG damage to plant (100=total damage to plant; 0=no damage to plant) ([8]; pre-emergence, rate 250 g/ha): 100
18 | CCc1ccc(Oc2nc3ccccc3nc2C(F)(F)F)cc1C1=C(O)C(C)(C)OC(C)(C)C1=O [Example A-174] | 90% | 90% | 100% | 100% | 50% | 70% | 40% | 100% | 
